Results on 7 compounds are retold here after US20260166113A1, “COMPOSITIONS AND METHODS FOR TREATING RENAL CANCER” (The Regents of the University of Michigan, priority 2022, published 2026).

For experiment [1], the system named is 5 RCC cell lines (786-0, 769-P, A-498, Caki-1, Caki-2). The experiment in a line: Kinase inhibition, DIA-MS phosphoproteome of treated RCC cell lines. It counts as cell-based. As to conditions: treated at calculated IC50 for 1.5 hours; for phosphorylation of signaling-related downstream substrates: DIA-MS. The procedure:
For in vitro experiments assessing the impact of select kinase inhibition on renal cancer cell models (786-0, 769-P, A-498, Caki-1, and Caki-2), the kinase inhibitors, Adaversotib, Everolimus, Sapanisterib, Gefitinib, and Trametinib were dissolved in dimethyl sulfoxide (DMSO) and subjected to sonication in a water bath at room temperature. Following an assessment of individual cell line growth rates to enable calculation of half maximal inhibitory concentration (IC50), cells were seeded in triplicate at concentrations of either 1,000 cells/well (786-0, 769-P, A-498, Caki-2) or 10,000 cells/well (Caki-1). Post-24 hour seeding, cells were subjected to kinase inhibitors at final concentrations of 1 nm, 10 nM, 50 nM, 100 nM, 500 nM, […], with non-treated cells and DMSO treated cells included as controls. Cell growth was measured on day 1 (kinase inhibitor treatment), day 4, and day 6 using the colorimetric CellTiter 96® Aqueous One Cell Proliferation Solution Assay (MTS) following the manufacturer's instructions. IC50 for each cell line in response to single kinase inhibitor exposure was determined by plotting inhibitor concentration against percent activity relative to DMSO-treated controls and calculating the x-intercept of the linear logarithmic trend line. For phosphoproteomic characterization of renal cell models treated with individual kinase inhibitors, six treatment conditions were devised—control, Adaversotib treatment, Everolimus treatment, Sapanisterib treatment, Gefitinib treatment, and Trametinib treatment—and cells were seeded at ˜5E6 cells/15 cm plate and allowed to reach ˜80% confluency. 30 minutes prior to kinase inhibitor treatment, fresh media was exchanged. Cells were then treated with kinase inhibitors at calculated IC50 values for 1.5 hours. Media was removed and cells were three times with a volume of ice-cold PBS. Cells were scraped using 1.5 mL of ice-cold PBS, transferred to Eppendorf tubes, and spun at 3,000×g for 5 minutes at 4° C. A volume of lysis buffer (8 M urea, 75 mM NaCl, 50 mM Tris, pH 8.0, 1 mM EDTA, […] aprotinin, […] leupeptin, 1 mM PMSF, 10 mM NaF, Phosphatase Inhibitor Cocktail 2 and Phosphatase Inhibitor Cocktail 3 [1:100 dilution], and 20 mM PUGNAc) was added and cells lysed. Subsequent sample preparation and ESI-LC-MS/MS analysis for global proteomic and phosphoproteomic characterization for DIA analysis were performed as described for tissue samples.
Analysis of the DIA data from the kinase inhibitor study (whole proteome and phosphopeptide enriched data) was performed as described above. For each data type, the libraries were built from the corresponding 30 DIA runs (6 treatments x 5 cell lines) supplemented with 8 or 9 fractionated DDA files for whole proteome and phosphopeptide-enriched samples, respectively. The resulting whole proteome spectral library contained 8882 proteins and 173932 precursors; the phosphopeptide enriched sample library contained 7841 proteins and 101491 precursors (including non-phosphorylated proteins and peptides). After DIA-NN quantification, the final quantification table for the phosphopeptide-enriched dataset contained quantification information for 46577 phosphorylated peptides forms, representing 22161 peptide sequences from 5154 proteins. The whole proteome dataset table contained quantification for 7654 genes.

Experiment [2] relates to 786-O renal cancer cells. The experiment in a line: Cell morphology by IncuCyte ZOOM assay. It counts as cell-based. As to conditions: 30 μM, 24 hr, FIG. 18K. As for the experimental part:
(§1) 786-O cells were maintained in Gibco RPMI-1640 supplemented with 10% FBS. CAS 668467-91-2 (UCHL-1 inhibitor) was purchased from Sigma-Aldrich (L4170) and its impact on cell viability was evaluated. Briefly, 2000 cells were seeded on white flat bottom 96 well plates and were treated with increasing concentrations of the inhibitor for a week. CellTiter-Glo Luminescent Cell Viability Assay (Promega) was used to assess cell viability and IC-50 was calculated using a graph pad. Impact of UCHL-1 inhibitor on cell morphology was evaluated using IncuCyte ZOOM assay. For western blot analysis, cell lysates were harvested from control and UCHL-1 treated 786-O cells. Following protein quantification, lysates were resolved in NuPAGE Bis-Tris Protein Gel (ThermoFisher Scientific), transferred on to nitrocellulose membranes, blocked with 5% milk, and incubated overnight with UCHL-1 antibody (HPA005993, Sigma-Aldrich). Following day, membranes were washed with TBST buffer, incubated with HRP-conjugated secondary antibodies, washed, and imaged using Odyssey Fc imager (LiCOR Biosciences).

The next experiment has as its system ccRCC cell line Caki-1. The experiment in a line: In vitro drug treatment and growth inhibition assessment (AlamarBlue cell viability). Type of experiment: cell-based. As to conditions: 1, 5, 25 μM, treatment 7 days, FIG. 18J. The procedure: (§2) The ccRCC cell line Caki-1 and a control cell line HK-2 were maintained in Dulbecco's Modified Eagle Medium/Nutrient Mixture F-12 (DMEM/F-12) culture medium (Gibco-11320033) supplemented with 10% FBS (Sigma, F-9665) and 1% Pen Strep (Gibco, 10,000 U/mL-15140122). All cell lines were seeded at 50,000 cells/well in duplicates in 24-well plates at day 0 and were treated with either UCHL1 inhibitor (CAS 668467-91-2-Calbiochem, Sigma Aldrich-662086-10 MG) or GLUL inhibitor (L-Methionine sulfoximine, Sigma Aldrich-M5379-500 MG) upon reaching 50-60% confluency at day 3 in culture. For both UCH-L1inhibitor or GLUL inhibitor treatment, the working concentrations were used at 1 μM, 5 μM, and 25 μM. Treatment was maintained in culture for a total of 7 days and growth inhibition assessment was performed using AlamarBlueTM Cell Viability Reagent (Invitrogen-DAL1025) at a ratio of 1:10 for 4 hours according to the manufacturer's protocol. Plots and IC50 concentrations were produced in Prism GraphPad (version 9.2.0) by plotting the percent growth inhibition on the y-axis and the Log (concentration) on the x-axis. The corresponding IC50 was extracted from the nonlinear regression curve fitting analysis using Prism GraphPad. Cells treated with only a growth medium without any drugs were used as negative controls.

Experiment [3] concerns normal kidney HK-2 cell line. The experiment is described as above. Type of experiment: cell-based. As to conditions: HK-2 normal kidney control; 1, 5, 25 μM; treatment 7 days. The procedure:
as §2

The test system of experiment [4] is neuroblastoma cell line NB1 (NB-1). The experiment in a line: Cell viability by CellTiter-Glo assay. It counts as cell-based. The procedure:
(§3) The cell viability was determined by CellTiter-Glo assays (Promega). Cells were seeded in 96-well plates (3000 cells per well) in respective culture medium. After 24 hrs incubation, a serial dilution of compounds was added into plates with six replications for each dose. After 120 hrs incubation, the CellTiter-Glo assays were performed based on the manufacturer's instruction to analyze cell proliferation rates. The bioluminescence signal was acquired by the Infinite M1000 Pro plate reader (Tecan). The data were analyzed by GraphPad Prism software (GraphPad Software).

In experiment [5] the test system is metastatic papillary RCC cell line ACHN1. The experiment in a line: Cell viability by CellTiter-Glo assay. It counts as cell-based. As to conditions: 120 hrs incubation; for effect on cell viability: FIG. 23D. As for the experimental part: as §3
In experiment [6] the test system is Akt signaling pathway in 786-O cells. The experiment in a line: Western blot analysis of Akt signaling. Type of experiment: cell-based. As to conditions: FIG. 18L. The procedure:
as §1

The test system of experiment [7] is 786-O renal cancer cells. Kind of experiment: CellTiter-Glo Luminescent Cell Viability Assay. As to conditions: increasing concentrations for a week, FIG. 18J. It counts as cell-based. As for the experimental part: as §1
The test system of a further experiment is skrc42.EV. As to conditions: FIG. 21G. As for the experimental part:
as §2

Another experiment has as its system metastatic RCC. The conditions noted are these: everolimus versus sunitinib; literature ref 85; cited from earlier work.

Molecules are shown by their SMILES. Entries after “also recorded” stand apart in the source; their conditions may differ.

In the case of `C=CCn1c(=O)c2cnc(Nc3ccc(N4CCN(C)CC4)cc3)nc2n1-c1cccc(C(C)(C)O)n1` [AZD-1775], in experiment [1], the “response among the five kinase inhibitors (phosphorylation of downstream targeted substrates)” value is “showed better responses” and the “phosphorylation of signaling-related downstream substrates” value is recorded as “reduced CDK1 phosphorylation levels in all five cell lines”.

Regarding `CC(=O)ON=C1C(=O)N(Cc2cc(Cl)ccc2Cl)c2ccc(Cl)cc21` [CAS 668467-91-2], the cell morphology entry in the experiment on 786-O renal cancer cells [2] is “altered morphology being elongated and stressed”. In addition, the “inhibition of cell viability” value with ccRCC cell line Caki-1 and in the experiment on 786-O renal cancer cells [7] was “dose-dependent inhibition of cell viability” in each case. Moreover, the “sensitivity of cell viability to treatment” value in experiment [3] was “resistant to the treatment”. Also, the “effect on cell viability” value in experiment [4] (NB-1, FIG. 23D right) was “dramatic effects”; in [5] (listed as UCHL1 inhibitor) it was “dramatic effects; also recorded: dramatic decrease in cell viability”. In addition, the IC50 was determined as 1600 nM in experiment [4] (neuroblastoma cell line NB1) and 650 nM in [5] (FIG. 23D middle). For the same compound, the “activation of the Akt signaling pathway” value in experiment [6] is “suppressed activation of the Akt signaling pathway in a dose-dependent manner”.

With `CS(=N)(=O)CC[C@H](N)C(=O)O` (stereo partly drawn) [L-Methionine sulfoximine], the “sensitivity of cell viability to treatment” value in experiment [3] is listed as “not sensitive to the treatment”. Moreover, the “response of cell viability to anti-GLUL treatment” value in the experiment on skrc42.EV is “responded to the anti-GLUL treatment”.

Take `CC(C)n1nc(-c2ccc3oc(N)nc3c2)c2c(N)ncnc21` [TAK-228]: in [1], the “response among the five kinase inhibitors (phosphorylation of downstream targeted substrates)” value is recorded as “showed better responses”; the “phosphorylation of signaling-related downstream substrates” value was “reduced phosphorylation of the mTOR complex component, AKT1S1, and its downstream phospho-substrate target, EIF4EBP1”.

Take `CO[C@H]1C[C@@H]2CC[C@@H](C)[C@@](O)(O2)C(=O)C(=O)N2CCCC[C@H]2C(=O)O[C@H]([C@H](C)C[C@@H]2CC[C@@H](OCCO)[C@H](OC)C2)CC(=O)[C@H](C)/C=C(\C)[C@@H](O)[C@@H](OC)C(=O)[C@H](C)C[C@H](C)/C=C/C=C/C=C/1C` [everolimus]: in experiment [1], the “phosphorylation of signaling-related downstream substrates” value is “minimal impact”. Besides, the “therapeutic value / response in metastatic RCC” value with metastatic RCC is on record as “relatively poor response”.

For the compound `COc1cc2ncnc(Nc3ccc(F)c(Cl)c3)c2cc1OCCCN1CCOCC1` [gefitinib], the “phosphorylation of signaling-related downstream substrates” value in experiment [1] is reported as “minimal impact”.

As to `C#CCN(C)Cc1ccccc1` [pargyline], the “effect on cell viability” value in experiment [5] is “no effect on cell viability; also recorded: did not affect”.
